Laboratory results reported in PubChem BioAssay AID2060599 (Molecular Pharmacology Branch, DTP, NCI, 2025).

Tested on: 817829-284-R-J1-PDC complex spheroids, viability
Assay: Anticancer human tumor 817829-284-R-J1-PDC patient-derived colon adenocarcinoma cell line growth inhibition [CLK]
Settings: for IC50: curve of first compound; for viability, T/C: stronger effect = lower value
How it was run: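 Patient-derived tumor cells grown as complex spheroids with HUVEC endothelial cells and mesenchymal stem cells, treated with drug combinations. Concentrations descend in half-log steps from near clinical Cmax, or from 10 microM if Cmax unknown.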

[1] = second compound 0.0316 µM, first compound 0.0316 µM
[2] = second compound 0.0316 µM, first compound 0.1 µM
[3] = second compound 0.0316 µM, first compound 0.316 µM
[4] = second compound 0.0316 µM, first compound 1 µM
[5] = second compound 0.1 µM, first compound 0.0316 µM
[6] = second compound 0.1 µM, first compound 0.1 µM
[7] = second compound 0.1 µM, first compound 0.316 µM
[8] = second compound 0.1 µM, first compound 1 µM
[9] = second compound 0.316 µM, first compound 0.0316 µM
[10] = second compound 0.316 µM, first compound 0.1 µM
[11] = second compound 0.316 µM, first compound 0.316 µM
[12] = second compound 0.316 µM, first compound 1 µM
[13] = second compound 1 µM, first compound 0.0316 µM
[14] = second compound 1 µM, first compound 0.1 µM
[15] = second compound 1 µM, first compound 0.316 µM
[16] = second compound 1 µM, first compound 1 µM
[17] = second compound 3.16 µM, first compound 0.0316 µM
[18] = second compound 3.16 µM, first compound 0.1 µM
[19] = second compound 3.16 µM, first compound 0.316 µM
[20] = second compound 3.16 µM, first compound 1 µM
[21] = second compound 10 µM, first compound 0.0316 µM
[22] = second compound 10 µM, first compound 0.1 µM
[23] = second compound 10 µM, first compound 0.316 µM
[24] = second compound 10 µM, first compound 1 µM
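Further: spheroids exposed to the agents for seven days before readout.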

CC(=O)O[C@H]1C(=O)[C@@]2(C)[C@H]([C@H](OC(=O)c3ccccc3)[C@]3(O)C[C@H](OC(=O)[C@H](O)[C@@H](NC(=O)c4ccccc4)c4ccccc4)C(C)=C1C3(C)C)[C@]1(OC(C)=O)CO[C@@H]1C[C@@H]2O + CN1CCN(c2cc(C(=O)Nc3cc4cc(-c5cnn(C)c5)ccc4cn3)ccn2)CC1
IC50 (second compound 0.0316 µM): < 31.6 nM
IC50 (second compound 0.1 µM): < 31.6 nM
IC50 (second compound 0.316 µM): < 31.6 nM
IC50 (second compound 1 µM): < 31.6 nM
IC50 (second compound 3.16 µM): < 31.6 nM
IC50 (second compound 10 µM): < 31.6 nM
viability, T/C [1]: 5.38%
viability, T/C [2]: 5.12%
viability, T/C [3]: 4.55%
viability, T/C [4]: 4.77%
viability, T/C (second compound 0.0316 µM, first compound 3.16 µM): 5.22%
viability, T/C (second compound 0.0316 µM, first compound 10 µM): 5.27%
viability, T/C [5]: 5.23%
viability, T/C [6]: 4.54%
viability, T/C [7]: 4.59%
viability, T/C [8]: 4.02%
viability, T/C (second compound 0.1 µM, first compound 3.16 µM): 4.74%
viability, T/C (second compound 0.1 µM, first compound 10 µM): 5.63%
viability, T/C [9]: 2.41%
viability, T/C [10]: 2.26%
viability, T/C [11]: 2.43%
viability, T/C [12]: 2.04%
viability, T/C (second compound 0.316 µM, first compound 3.16 µM): 2.2%
viability, T/C (second compound 0.316 µM, first compound 10 µM): 2.45%
viability, T/C [13]: 0.09%
viability, T/C [14]: 0.1%
viability, T/C [15]: 0.09%
viability, T/C [16]: 0.07%
viability, T/C (second compound 1 µM, first compound 3.16 µM): 0.09%
viability, T/C (second compound 1 µM, first compound 10 µM): 0.11%
viability, T/C [17]: 0.11%
viability, T/C [18]: 0.14%
viability, T/C [19]: 0.13%
viability, T/C [20]: 0.16%
viability, T/C (second compound 3.16 µM, first compound 3.16 µM): 0.1%
viability, T/C (second compound 3.16 µM, first compound 10 µM): 0.14%
viability, T/C [21]: 0.07%
viability, T/C [22]: 0.1%
viability, T/C [23]: 0.11%
viability, T/C [24]: 0.09%
viability, T/C (second compound 10 µM, first compound 3.16 µM): 0.11%
viability, T/C (second compound 10 µM, first compound 10 µM): 0.12%

CCc1c2c(nc3ccc(O)cc13)-c1cc3c(c(=O)n1C2)COC(=O)[C@]3(O)CC + CN1CCN(c2cc(C(=O)Nc3cc4cc(-c5cnn(C)c5)ccc4cn3)ccn2)CC1
IC50 (second compound 0.0316 µM): < 3.16 nM
IC50 (second compound 0.1 µM): < 3.16 nM
IC50 (second compound 0.316 µM): < 3.16 nM
IC50 (second compound 1 µM): < 3.16 nM
IC50 (second compound 3.16 µM): < 3.16 nM
IC50 (second compound 10 µM): < 3.16 nM
viability, T/C (second compound 0.0316 µM, first compound 0.00316 µM): 18.9%
viability, T/C (second compound 0.0316 µM, first compound 0.01 µM): 14.8%
viability, T/C [1]: 12.5%
viability, T/C [2]: 6.83%
viability, T/C [3]: 4.71%
viability, T/C [4]: 2.93%
viability, T/C (second compound 0.1 µM, first compound 0.00316 µM): 14.1%
viability, T/C (second compound 0.1 µM, first compound 0.01 µM): 11.4%
viability, T/C [5]: 7.3%
viability, T/C [6]: 4.95%
viability, T/C [7]: 3.31%
viability, T/C [8]: 1.84%
viability, T/C (second compound 0.316 µM, first compound 0.00316 µM): 2.41%
viability, T/C (second compound 0.316 µM, first compound 0.01 µM): 2.17%
viability, T/C [9]: 1.78%
viability, T/C [10]: 0.79%
viability, T/C [11]: 0.28%
viability, T/C [12]: 0.34%
viability, T/C (second compound 1 µM, first compound 0.00316 µM): 0.09%
viability, T/C (second compound 1 µM, first compound 0.01 µM): 0.12%
viability, T/C [13]: 0.2%
viability, T/C [14]: 0.27%
viability, T/C [15]: 0.27%
viability, T/C [16]: 0.41%
viability, T/C (second compound 3.16 µM, first compound 0.00316 µM): 0.14%
viability, T/C (second compound 3.16 µM, first compound 0.01 µM): 0.18%
viability, T/C [17]: 0.19%
viability, T/C [18]: 0.21%
viability, T/C [19]: 0.31%
viability, T/C [20]: 0.67%
viability, T/C (second compound 10 µM, first compound 0.00316 µM): 0.05%
viability, T/C (second compound 10 µM, first compound 0.01 µM): 0.1%
viability, T/C [21]: 0.12%
viability, T/C [22]: 0.13%
viability, T/C [23]: 0.15%
viability, T/C [24]: 0.1%
